In experiment [1] the test system is Mus musculus. Briefly: Suppression of fasting blood glucose in overnight fasted ob/ob mouse 25 mg/kg, ip dosed 3 times and measured 3 hrs after last dose. Type of experiment: functional, organism-based.
A short description of experiment [2]: Inhibition of NE-induced lipolysis in adipocytes (unknown origin) assessed as reduction in glycerol release at 1 uM pre-incubated for 30 mins before NE stimulation for 90 mins by glycerol reagent based assay relative to control. Format: functional, Adipocyte. Particulars: 2 h.
A short description of experiment [3]: Inhibition of glucagon-induced glucose secretion in C57BL/6 mouse primary hepatocytes at 1 uM. Particulars: C57BL/6, Hepatocyte. Type of experiment: functional.
Experiment [4] has as its system Mus musculus. The experiment in a line: In-vivo antagonist activity at beta-adrenergic receptor in fasted ob/ob mouse assessed as increase in accumulation of liver glycogen at 25 mg/kg. Format: functional, organism-based.
The target of experiment [5] is T1, 5-hydroxytryptamine receptor 1A (Homo sapiens, UniProt P08908).
T1 sequence (P08908 whole entry): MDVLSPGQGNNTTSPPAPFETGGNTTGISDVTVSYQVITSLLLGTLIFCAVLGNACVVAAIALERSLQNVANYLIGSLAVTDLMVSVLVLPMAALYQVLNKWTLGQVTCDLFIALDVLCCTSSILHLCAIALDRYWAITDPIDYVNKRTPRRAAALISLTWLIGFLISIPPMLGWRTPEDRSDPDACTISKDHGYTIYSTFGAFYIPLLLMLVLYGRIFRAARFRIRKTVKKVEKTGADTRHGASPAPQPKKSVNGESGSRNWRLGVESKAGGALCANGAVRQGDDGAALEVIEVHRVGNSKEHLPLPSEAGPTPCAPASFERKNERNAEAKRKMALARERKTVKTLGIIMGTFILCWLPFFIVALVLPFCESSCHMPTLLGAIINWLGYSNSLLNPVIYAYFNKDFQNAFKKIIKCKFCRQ
The experiment in a line: Binding affinity to 5HT1A receptor (unknown origin).

Experiment [6] concerns Mus musculus. Briefly: In-vivo antagonist activity at beta-adrenergic receptor in fasted and HFD fed mouse assessed as inhibition of hormone-sensitive lipase phosphorylation in epididymal white adipose tissue at 50 mg/kg. Format: functional, organism-based.
The target of experiment [7] is Beta-2 adrenergic receptor (Homo sapiens, UniProt P07550). Briefly: Binding affinity to beta2 adrenoceptor (unknown origin).
Experiment [8] deals with Mus musculus. The experiment in a line: In-vivo antagonist activity at beta-adrenergic receptor in fasted ob/ob mouse assessed as inhibition of hormone-sensitive lipase phosphorylation in brown adipose tissue at 25 mg/kg.
In experiment [9] the test system is Mus musculus. The experiment in a line: In-vivo antagonist activity at beta-adrenergic receptor in fasted and HFD fed mouse assessed as increase in accumulation of liver glycogen at 50 mg/kg. Type of experiment: functional, organism-based.
The subject of the next experiment is Adipocyte. Briefly: Inhibition of NE-induced lipolysis in adipocytes (unknown origin) assessed as reduction in glycerol release at 1 to 10000 nM pre-incubated for 30 mins before NE stimulation for 90 mins by glycerol reagent based assay relative to control. The following applies: dose 1-10000 nM, time 120.0 min. Format: functional, cell-based.

Broadly, the Ki is the dissociation constant of the complex between target and ligand, obtained from inhibition or displacement.

Calls of active or inactive are those of the source. The rule behind the calls is not given here.

Chain of Beta-2 adrenergic receptor (P07550 whole entry): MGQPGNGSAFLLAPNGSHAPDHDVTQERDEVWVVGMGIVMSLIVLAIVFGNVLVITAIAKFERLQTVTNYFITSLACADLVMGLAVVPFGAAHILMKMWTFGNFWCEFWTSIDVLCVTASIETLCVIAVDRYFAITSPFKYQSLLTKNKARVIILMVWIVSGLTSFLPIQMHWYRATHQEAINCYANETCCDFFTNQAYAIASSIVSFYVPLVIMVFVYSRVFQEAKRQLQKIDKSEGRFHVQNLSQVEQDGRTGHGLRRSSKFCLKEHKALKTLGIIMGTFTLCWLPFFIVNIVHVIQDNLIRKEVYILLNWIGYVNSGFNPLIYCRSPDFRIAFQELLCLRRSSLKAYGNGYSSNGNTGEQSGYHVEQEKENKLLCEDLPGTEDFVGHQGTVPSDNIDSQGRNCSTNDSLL

With `Cc1ccc(CN(CC(O)COc2cccc3[nH]ccc23)C(C)(C)C)cc1` (stereo unspecified), the outcome in the experiment on Mus musculus [1] was Active. In experiment [2] (read-out: INH), the inhibition was found to be 25.8%. The inhibition at 1 µM in [3] stood at 57.7%. Further, the outcome in the experiment on Mus musculus [4], in the experiment with Mus musculus [6], in the experiment with Mus musculus [8] and in the experiment with Mus musculus [9] was inactive. Further, the values for the Ki in experiment [5] and in experiment [7] were 2100 nM and 1300 nM, respectively.
As to `Cc1ccc(CN(CC(O)COc2ccccc2)C(C)(C)C)cc1` (stereo unspecified), in experiment [2] (read-out: INH), the inhibition came out at 21.7%. Moreover, the inhibition at 1 µM in experiment [3] was 32.3%.
In the same order, the values of `CC(C)(C)N(CC(O)COc1cccc2[nH]ccc12)CC1CCCC1` (stereo unspecified) are 51.3% and 48.5%.
On to `COC(COc1cccc2c1ccn2C)CN(Cc1ccc(C)cc1)C(C)(C)C` (stereo unspecified), for which the inhibition in experiment [2] (read-out: INH) worked out at 3.22%. The inhibition at 1 µM in experiment [3] worked out at 56.8%.
For `COc1ccc(CN(CC(O)COc2cccc3[nH]ccc23)C(C)(C)C)cc1` (stereo unspecified), in experiment [2] (read-out: INH), the inhibition was 58.3%. The inhibition at 1 µM in experiment [3] came to 30.1%.
For the molecule `CC(C)(C)c1ccc(CN(CC(O)COc2cccc3[nH]ccc23)C(C)(C)C)cc1` (stereo unspecified), in the experiment on Mus musculus [1], the outcome was Active. Further, in [2] (read-out: INH), the inhibition turned out to be 11.3%. In experiment [3], the inhibition at 1 µM is 47.3%. Moreover, the result in the experiment on Mus musculus [4] and with Mus musculus [8] was inactive. In addition, the inhibition result in the experiment with Adipocyte was “inactive”.
On to `CC(C)NCC(O)COc1cccc2ccccc12` (stereo unspecified) [PROPRANOLOL], for which the inhibition in experiment [2] was 92.4%.
Take `CC(=O)Nc1cccc(OCC(O)CN(Cc2ccc(C)cc2)C(C)(C)C)c1` (stereo unspecified): the inhibition in experiment [2] (read-out: INH) is 12.3%. Also, the inhibition at 1 µM in [3] was 35.9%.
Consider `CC(C)(C)N(Cc1ccc(F)cc1)CC(O)COc1cccc2[nH]ccc12` (stereo unspecified), for which the inhibition in [2] (read-out: INH) worked out at 55.3%. Besides, the inhibition at 1 µM in experiment [3] was found to be 52.2%.
With `Cc1ccc(CN(CC(O)COc2cccc(C)c2)C(C)(C)C)cc1` (stereo unspecified), in experiment [2] (read-out: INH), the inhibition is 13.1%. In addition, in experiment [3], the inhibition at 1 µM came to 31.5%.
Turning to `CN(C)c1ccc(CN(CC(O)COc2cccc3[nH]ccc23)C(C)(C)C)cc1` (stereo unspecified), the inhibition in experiment [2] (read-out: INH) was 65.2%. In experiment [3], the inhibition at 1 µM came to 35.3%.
In the case of `Cc1ccc(CN(CC(O)CNc2cccc3cc[nH]c23)C(C)(C)C)cc1` (stereo unspecified), the inhibition in experiment [2] (read-out: INH) amounted to 13.2%. Besides, the inhibition at 1 µM in [3] stood at 35.1%.
`Cc1ccc(CN(CCCOc2cccc3[nH]ccc23)C(C)(C)C)cc1`: the inhibition in experiment [2] (read-out: INH) was determined as 9.91%. For the same molecule, the inhibition at 1 µM in experiment [3] was 28.3%.
In the same order, the values of `Cc1ccc(CN(CC(O)COc2ccncc2)C(C)(C)C)cc1` (stereo unspecified) are 31.5% and 41.4%.
For `Cc1ccc(CN(CC(O)CNc2ccc3[nH]ccc3c2)C(C)(C)C)cc1` (stereo unspecified), the inhibition in experiment [2] (read-out: INH) came to 2.24%. In addition, in [3], the inhibition at 1 µM stood at 28.2%.
In the same order, the values of `Cc1ccc(CN(CC(O)COc2cccc3[nH]ccc23)C2CC2)cc1` (stereo unspecified) are 11.6% and 37.8%.
Regarding `COC(COc1cccc2[nH]ccc12)CN(Cc1ccccc1C)C(C)(C)C` (stereo unspecified), the inhibition in experiment [2] (read-out: INH) is 14.6%. The inhibition at 1 µM in experiment [3] is 22.7%.
In the same order, the values of `CC(C)(C)NCC(O)COc1cccc2[nH]ccc12` (stereo unspecified) are 73.2% and 53%.
In the same order, the values of `Cc1ccc(CN(CC(O)COc2cccc3[nH]ccc23)C(C)C)cc1` (stereo unspecified) are 51.6% and 59.5%.
`Cc1ccccc1CN(CC(O)COc1cccc2[nH]ccc12)C(C)(C)C` (stereo unspecified): the inhibition in experiment [2] (read-out: INH) stood at 35.6%. For the same molecule, the inhibition at 1 µM in experiment [3] amounted to 46%.
`COC(COc1cccc2[nH]ccc12)CN(CC1CCCC1)C(C)(C)C` (stereo unspecified): the inhibition in experiment [2] (read-out: INH) worked out at 1%. Further, in experiment [3], the inhibition at 1 µM came to 66.4%.
As to `Cc1ccc(CN(CC(O)COc2cccc3ccccc23)C(C)(C)C)cc1` (stereo unspecified), the inhibition in [2] (read-out: INH) is 10.4%. For the same molecule, the inhibition at 1 µM in experiment [3] is -2.73%.
Consider `COC(COc1cccc2[nH]ccc12)CN(Cc1ccc(C)cc1)C(C)(C)C` (stereo unspecified), for which, in experiment [2] (read-out: INH), the inhibition was -8.5%. Further, in experiment [3], the inhibition at 1 µM was determined as 135%.
In the case of `Cc1ccc(CN(CC(O)COc2ccc3[nH]ccc3c2)C(C)(C)C)cc1` (stereo unspecified), in experiment [2] (read-out: INH), the inhibition came to 48.5%. Further, the inhibition at 1 µM in [3] came out at 50.7%.
As to `Cc1cccc(CN(CC(O)COc2cccc3[nH]ccc23)C(C)(C)C)c1` (stereo unspecified), the inhibition in experiment [2] (read-out: INH) was found to be 40.4%. For the same molecule, in [3], the inhibition at 1 µM was determined as 62.6%.
In the same order, the values of `Cc1ccc(CN(CC(O)COc2cccc3c2ccn3C)C(C)(C)C)cc1` (stereo unspecified) are 36.7% and 47.7%.
As for `CC(C)(C)N(Cc1ccc(C#N)cc1)CC(O)COc1cccc2[nH]ccc12` (stereo unspecified), the inhibition in experiment [2] (read-out: INH) was found to be 53.7%. In experiment [3], the inhibition at 1 µM came to 49.3%.
As to `Cc1ccc(CNCC(O)COc2cccc3[nH]ccc23)cc1` (stereo unspecified), the inhibition in experiment [2] (read-out: INH) worked out at 40.6%. Moreover, the inhibition at 1 µM in [3] was 34.5%.

Source of the values: ChEMBL document CHEMBL4706660, “Structure-Activity Relationship and Biological Investigation of SR18292 (16), a Suppressor of Glucagon-Induced Glucose Production” (J Med Chem, 2021).
